Data on two compounds can be found in paper PMC5505244, “Crystal structure of a family 6 cellobiohydrolase from the basidiomycete Phanerochaete chrysosporium” (Acta Crystallographica. Section F, Structural Biology …, 2017).

The target in assay [1] is T1, PcCel6A (Phanerodontia chrysosporium, UniProt Q02321).
T1 construct: gene cbhII; catalytic domain only; N-terminal CBM and linker (residues 1-81) deleted; pPICZalpha vector, secreted from Pichia pastoris; about 37 kDa; nonglycosylated in crystal; model residues 82-439; one molecule in asymmetric unit
Put plainly: hydrolysis in crystal soak, inferred from bound product in X-ray structure. It counts as biochemical. Particulars: pH 5.0, 10 h soak; intact compound not seen in the structure.

Assay [2] deals with T1, PcCel6A. Put plainly: X-ray crystal structure, […] Å. It counts as binding. Conditions: crystal soaked with pNPG3 for 10 h, pH 5.0; active site, subsites +1 and +2; loops closed; putative Tris at subsite -1.

T1 sequence (Q02321 entry or part of it): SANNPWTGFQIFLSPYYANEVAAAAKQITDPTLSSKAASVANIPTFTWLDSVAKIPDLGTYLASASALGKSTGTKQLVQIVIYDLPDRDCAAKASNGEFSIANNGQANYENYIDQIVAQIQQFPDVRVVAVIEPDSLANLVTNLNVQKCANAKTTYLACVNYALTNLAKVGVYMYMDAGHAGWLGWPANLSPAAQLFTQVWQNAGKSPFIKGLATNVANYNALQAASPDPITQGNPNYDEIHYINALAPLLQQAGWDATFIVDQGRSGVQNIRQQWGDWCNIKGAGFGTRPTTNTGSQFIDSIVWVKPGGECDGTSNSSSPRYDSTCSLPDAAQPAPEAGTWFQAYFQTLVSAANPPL

On to `O=[N+]([O-])c1ccc(O[C@@H]2O[C@H](CO)[C@@H](O[C@@H]3O[C@H](CO)[C@@H](O[C@@H]4O[C@H](CO)[C@@H](O)[C@H](O)[C@H]4O)[C@H](O)[C@H]3O)[C@H](O)[C@H]2O)cc1` [p-nitrophenyl β-D-cellotrioside], for which, on PcCel6A [1], the “hydrolysis in crystal soak, inferred from bound product in X-ray structure” value is “The observed α-cellobiose is considered to be a product of the hydrolysis of pNPG3”.

For `OC[C@H]1O[C@@H](O[C@H]2[C@H](O)[C@@H](O)[C@@H](O)O[C@@H]2CO)[C@H](O)[C@@H](O)[C@@H]1O` [α-cellobiose], at PcCel6A [2], the “X-ray crystal structure, 2.1 Å” value was “The ligand-bound structure obtained from the pNPG3-soaked crystal contained one α-cellobiose molecule”.
